Here are results for 1 compound from paper PMC11635053, “Development of a homotrimeric PSMA radioligand based on the NOTI chelating platform” (EJNMMI Radiopharmacy and Chemistry, 2024).

For data set [1], the target named is T1, PSMA (Homo sapiens, UniProt Q04609).
T1 construct: host or cells: LNCaP
Kind of data set: Competitive binding assay in LNCaP cells with [177Lu]Lu-PSMA-617 as radioligand. As to conditions: LNCaP cells, radioligand [177Lu]Lu-PSMA-617, 2 h at r.t.; read-out: IC50 (half maximum competitive inhibitory concentration). The procedure: In order to establish a structure–activity relationship, the binding affinity of the metal-free and ^natGa-complexes of the conjugates 7, 8, and 9 were determined in the PSMA-positive human prostate cancer cell line LNCaP by a competitive binding assay as previously reported using [^177Lu]Lu-PSMA-617 as the radioligand (Stemler et al. [2021]). The conjugate Glu-CO-Lys-Ahx-HBED-CC (PSMA-11) was included as the control.
The competitive binding assay was carried out using a MultiScreen®HTS Vacuum Manifold system (Merck, Germany) with 96-well filter plates. Serial dilutions of the metal-free conjugates and corresponding ^natGa complexes were prepared to obtain 7 final concentrations ranging from 0 to 1000 nM for each compound. PSMA-11 was also tested as control. Experiments were performed twice in triplicate for each compound. Freshly prepared ^177Lu-labeled PSMA-617 was used as the radioligand. A volume of 1 μL of [^177Lu]Lu-PSMA-617 stock solution (2.83 μM) was added into each tube of the dilution series (radioligand concentration 3.14 nM). For the experiment, 10^5 LNCaP cells were seeded into each well. The final volume of each well was 150 μL (100 μL cells in medium + 50 μL inhibitor in PBS). The experiment was incubated for 2 h at r.t. in a plate shaker. Then, the supernatants were removed by vacuum. Wells were furthermore washed out with ice-cold PBS (3 × 200 μL, pH 7.4). The filters were punched into tubes for the subsequent quantification of the activity in a Gamma-counter. A nonlinear regression algorithm was applied by the software GraphPad Prism to determine the specific inhibitory concentrations of 50% for the tested radiotracers.

Data set [2] has as its system PSMA-positive LNCaP cells. Kind of data set: Cell uptake / internalization of 68Ga-labeled conjugates in LNCaP cells. The data set is classed as cell-based, human. As to conditions: 1 h incubation, 2.5 pmol per 10^6 cells, 68Ga-labeled. The procedure: Next, the cellular uptake of the ^68Ga-labeled conjugates 7, 8, and 9 as well as [^68Ga]Ga-PSMA-11 was determined in PSMA-positive LNCaP cells.
LNCaP cells were seeded (10^6 cells well^−1) in poly-L-lysine coated 6-well plates 24 h before the experiment. Experiments were performed twice in triplicate for each compound. The radiolabeling solutions of [^68Ga]Ga-7, [^68Ga]Ga-8, [^68Ga]Ga-9, and [^68Ga]Ga-PSMA-11 were first diluted with PBS (pH 7.4) to a concentration of […]. 100 µL of this dilution were added to 3900 µL PBS (pH 7.4) to obtain final stock solutions of each radiolabeled compound (0.025 nmol mL^−1).
On the day of the experiment, the medium was replaced by fresh preheated medium (1.4 mL w/o blocking, 1.3 mL with blocking) and the cells incubated for 1 h at 37 °C. Next, the blocking solution was added (100 μL, 2500 pmol) to the corresponding wells. Finally, the corresponding radiolabeled conjugate (100 μL, 2.5 pmol) was added to a final assay volume of 1.5 mL well^−1. After 1 h incubation time, the supernatants were removed and the cells were washed carefully with ice-cold PBS buffer (2 × 1 mL, pH 7.4) followed by a subsequent glycine–HCl washing step (50 mM, pH 2.8, 2 × 1 mL well^−1). Cells were incubated with the glycine–HCl solution for 4 min at r.t. Next, corresponding fractions were transferred into counting tubes. Subsequently, the cells were lysed by adding NaOH (2 × 1 mL well^−1, 0.1 M) and the lysed fractions were also transferred into counting tubes. As standards, 100 µL of each radiolabeled conjugate stock solution (0.025 nmol mL^−1, 2.5 pmol) were pipetted into counting tubes containing 2 mL PBS buffer. The activity of the standards, the surface bound fractions and the internalized fractions were measured in a Gamma counter. Means were calculated and subtracted by the background. The percentages of unspecific and specific cell-surface bound and internalized activity were calculated from the standards.

Data set [3] has as its system human serum proteins. Kind of data set: in vitro. The data set is classed as in vitro ADME. As to conditions: male, Protein binding. The protocol:
To determine the protein bound fraction of each trimeric radiotracer, 100 μL of the radiolabeling solution of the corresponding ^68Ga-labeled conjugate were added to preheated (37 °C) 1000 μL human serum (male, AB, Sigma Aldrich, USA) in triplicates. Samples were incubated for 1 h at 37 °C. After cooling to r.t., the samples were centrifuged utilizing molecular cutoff (30 kDa) centrifuge tubes at 4 G for 5 min at 4 °C. The filters were additionally rinsed with PBS buffer (2 × 100 μL). The background subtracted activity in the filters and the filtrates were determined in a Gamma counter and the percentage of protein bound fractions were calculated.

T1 sequence (Q04609 whole entry): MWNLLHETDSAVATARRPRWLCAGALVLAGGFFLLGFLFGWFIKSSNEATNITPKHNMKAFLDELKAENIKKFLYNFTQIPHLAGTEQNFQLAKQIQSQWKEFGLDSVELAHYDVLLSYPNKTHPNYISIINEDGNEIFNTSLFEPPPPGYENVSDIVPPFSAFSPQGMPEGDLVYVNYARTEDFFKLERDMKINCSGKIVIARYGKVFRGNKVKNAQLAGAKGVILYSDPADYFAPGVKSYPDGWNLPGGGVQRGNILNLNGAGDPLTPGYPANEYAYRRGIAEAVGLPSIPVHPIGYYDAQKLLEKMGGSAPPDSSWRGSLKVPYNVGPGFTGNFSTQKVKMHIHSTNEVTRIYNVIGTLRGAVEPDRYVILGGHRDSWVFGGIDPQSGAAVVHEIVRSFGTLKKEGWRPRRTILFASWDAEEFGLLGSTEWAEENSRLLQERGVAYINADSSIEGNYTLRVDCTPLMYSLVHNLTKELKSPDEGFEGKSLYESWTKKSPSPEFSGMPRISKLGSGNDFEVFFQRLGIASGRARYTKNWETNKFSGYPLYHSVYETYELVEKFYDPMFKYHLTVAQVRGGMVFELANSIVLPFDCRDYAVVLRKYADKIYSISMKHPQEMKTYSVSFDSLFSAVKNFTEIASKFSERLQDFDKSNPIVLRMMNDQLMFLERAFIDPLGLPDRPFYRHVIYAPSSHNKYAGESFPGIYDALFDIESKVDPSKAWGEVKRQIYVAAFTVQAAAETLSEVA

Usually fraction unbound stands for free concentration divided by total concentration. Low readings indicate little free substance, high ones much free substance. Take `O=C(O)CC[C@H](NC(=O)N[C@@H](CCCCNC(=O)[C@H](Cc1ccc2ccccc2c1)NC(=O)[C@H]1CC[C@H](CNC(=O)CCCCn2ccnc2CN2CCN(Cc3nccn3CCCCC(=O)NC[C@H]3CC[C@H](C(=O)N[C@@H](Cc4ccc5ccccc5c4)C(=O)NCCCC[C@H](NC(=O)N[C@@H](CCC(=O)O)C(=O)O)C(=O)O)CC3)CCN(Cc3nccn3CCCCC(=O)NC[C@H]3CC[C@H](C(=O)N[C@@H](Cc4ccc5ccccc5c4)C(=O)NCCCC[C@H](NC(=O)N[C@@H](CCC(=O)O)C(=O)O)C(=O)O)CC3)CC2)CC1)C(=O)O)C(=O)O` [^nat/68Ga-9, metal not drawn]: the IC50 in data set [1] worked out at 4.8 nM. For the same compound, the Cell-surface bound fraction in data set [2] is recorded as 1.5 ± 0.5%. In addition, the fraction unbound at 1 h in data set [3] was < 0.05.
